The assay addresses Transient receptor potential cation channel subfamily A member 1 (Homo sapiens, UniProt O75762). The experiment in a line: Fluorescence Assay: IC50s (effective concentration) of compounds on the human TRPA1 channel were determined using a Hamamatsu FDSS fluorescence plate reader. CHO cells expressing human TRPA1 were plated into 384-well plates, incubated overnight at 37° C., and loaded with BD calcium indicator dye for 1 hr at 37° C. followed by 15 minutes at room temperature. The assay buffer was Hank's Balanced Salt Solution (HBSS) containing 20 mM HEPES (pH readjusted to 7.4) along with 0.02% BSA.Following dye load and plate cool down, compounds were added to the cells using the FDSS while monitoring fluorescence to determine whether any of the test compounds have TRPA1 agonist activity. Plates were then incubated with compound for 20 minutes at room temperature prior to adding agonist. Following this incubation, […] cinnamaldehyde was added to all wells of the plate and block of this cinnamaldehyde induced calcium influx was measured.

Chain of Transient receptor potential cation channel subfamily A member 1 (O75762 whole entry): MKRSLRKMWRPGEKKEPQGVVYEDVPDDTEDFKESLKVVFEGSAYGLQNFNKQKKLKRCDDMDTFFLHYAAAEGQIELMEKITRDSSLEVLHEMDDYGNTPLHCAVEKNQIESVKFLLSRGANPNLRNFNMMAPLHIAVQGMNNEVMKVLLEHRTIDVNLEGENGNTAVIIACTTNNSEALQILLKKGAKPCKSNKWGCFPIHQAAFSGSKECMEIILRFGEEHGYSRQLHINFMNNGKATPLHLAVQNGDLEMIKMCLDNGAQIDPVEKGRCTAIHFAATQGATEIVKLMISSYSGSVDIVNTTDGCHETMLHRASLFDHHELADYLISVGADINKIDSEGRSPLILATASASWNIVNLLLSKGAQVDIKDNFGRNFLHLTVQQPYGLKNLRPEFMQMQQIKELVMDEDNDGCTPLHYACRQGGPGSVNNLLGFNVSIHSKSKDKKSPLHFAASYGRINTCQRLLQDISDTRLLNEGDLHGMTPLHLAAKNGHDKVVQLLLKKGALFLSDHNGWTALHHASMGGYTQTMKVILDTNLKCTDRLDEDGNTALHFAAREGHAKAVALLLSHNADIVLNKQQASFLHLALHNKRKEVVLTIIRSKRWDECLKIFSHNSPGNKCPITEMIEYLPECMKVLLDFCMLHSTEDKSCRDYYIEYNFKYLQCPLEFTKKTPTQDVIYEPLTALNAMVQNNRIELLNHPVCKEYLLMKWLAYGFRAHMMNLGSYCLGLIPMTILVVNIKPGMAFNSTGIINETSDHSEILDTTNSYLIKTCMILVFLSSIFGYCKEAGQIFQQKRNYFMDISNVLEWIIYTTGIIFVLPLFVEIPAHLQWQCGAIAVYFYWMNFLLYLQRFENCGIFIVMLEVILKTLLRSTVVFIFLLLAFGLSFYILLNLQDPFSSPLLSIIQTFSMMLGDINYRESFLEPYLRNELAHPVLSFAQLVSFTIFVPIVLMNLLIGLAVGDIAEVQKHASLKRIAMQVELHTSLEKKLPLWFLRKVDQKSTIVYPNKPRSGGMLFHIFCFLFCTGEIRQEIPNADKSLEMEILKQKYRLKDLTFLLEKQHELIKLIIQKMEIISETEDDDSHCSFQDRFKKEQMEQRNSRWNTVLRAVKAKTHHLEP

As usually defined, the IC50 is the midpoint of a concentration-inhibition curve. For the compound `CC(C)N(CC(=O)NCc1cc(C2=CCC(C(F)(F)F)CC2)ncn1)S(=O)(=O)c1ccc(F)cc1` (stereo unspecified), the concentration for half-maximal inhibition (IC50) worked out at 13 nM.

The record behind these values is ChEMBL document CHEMBL5725783, “Substituted sulfonamide compounds” (2017).
